Measurements taken from paper PMC10873978, “Novel tetrahydroisoquinolines as DHFR and CDK2 inhibitors: synthesis, characterization, anticancer activity and antioxidant properties” (BMC Chemistry, 2024).
Where “and” joins values, the source holds several entries; their conditions need not be identical. Equal entries are not always repeated. Where two headings read alike, the source gives them in different places.

How the values were obtained:
[1] = system: WI-38 cell line; assay: Cytotoxicity on normal cell line WI-38; format: cell-based, human; settings: for IC50: read-out: Toxicity on WI38 IC50 ± SD
[2] = system: MCF7 cell line; assay: In vitro cytotoxic activity, MTT method, MCF7; format: cell-based, human; settings: for IC50: MTT
Outline: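 MTT assay: cells seeded at 10^5 cells/mL, grown 24 h at 37 °C to a monolayer, then exposed to serial tetrahydroisoquinoline concentrations at 37 °C. MTT (5 mg/mL stock) added for 1–5 h; OD read at 560 nm minus 620 nm background. Doxorubicin as positive control.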

[3] = biological target: Eef2 kinase (Homo sapiens, UniProt O00418); assay: Eef2 kinase inhibition; format: biochemical

%inh ([3]; Eef2, conc 0.01 (log -2)): 16.5%
%inh ([3]; Eef2, conc 0.1 (log -1)): 32.8%
%inh ([3]; Eef2, conc 1 (log 0)): 48.2%
%inh ([3]; Eef2, conc 10 (log 1)): 76.5%
%inh ([3]; Eef2, conc 100 (log 2)): 91.7%
IC50 ([3]; read-out: Eef2 kinase (IC50 ± SD)): 689 ± 36 nM
SMILES: CC(=O)c1ccc(NC(=O)c2sc3nc(C)c4c(c3c2N)CC(C)(O)C(C(C)=O)C4c2ccc(N(C)C)cc2)cc1 (centres unmarked) [Compound 8d, 7-Acetyl-N-(4-acetylphenyl)-1-amino-5,8-dimethyl-8-hydroxy-6-(4-N,N-dimethylaminophenyl)-6,7,8,9-tetrahydrothieno[2,3-c]isoquinoline-2-carboxamide]
IC50 ([1]; Homo sapiens, WI-38, normal human fetal lung fibroblast WI-38): 23300 nM
Selectivity index (SI) ([1]; IC50 in WI-38 / IC50 in A549): 45 and 45.24
% viability ([1]; WI38, 6.25uM (log conc. 0.8), 6.25 µM): 73.9744%
% viability ([1]; WI38, 25uM (log conc. 1.4), 25 µM): 46.8729%
IC50 ([1]; normal human fetal lung fibroblast WI-38): 23300 ± 930 nM
IC50 ([2]; Homo sapiens, MCF7, MCF7 cell line): 170 nM
Toxicity % ([2]; MCF7, Conc. 0.0487 µMol): 21.79%
Viability % ([2]; MCF7, Conc. 0.0487 µMol): 78.2125%
Viability % ([2]; MCF7, Conc. 0.0975 µMol): 54.4424%
Toxicity % ([2]; MCF7, Conc. 0.195 µMol): 54.13%
Viability % ([2]; MCF7, Conc. 0.195 µMol): 45.87%
Toxicity % ([2]; MCF7, Conc. 0.391 µMol): 65.48%
Viability % ([2]; MCF7, Conc. 0.391 µMol): 34.52%
Toxicity % ([2]; MCF7, Conc. 0.781 µMol): 88.6%
Viability % ([2]; MCF7, Conc. 0.781 µMol): 11.4%
Toxicity % ([2]; MCF7, Conc. 1.562 µMol): 93.83%
Viability % ([2]; MCF7, Conc. 1.562 µMol): 6.168%
Toxicity % ([2]; MCF7, Conc. 3.125 µMol): 94.61%
Viability % ([2]; MCF7, Conc. 3.125 µMol): 5.392%
Toxicity % ([2]; MCF7, Conc. 6.25 µMol): 96.41%
Viability % ([2]; MCF7, Conc. 6.25 µMol): 3.595%
Toxicity % ([2]; MCF7, Conc. 12.5 µMol): 97.06%
Viability % ([2]; MCF7, Conc. 12.5 µMol): 2.941%
Toxicity % ([2]; MCF7, Conc. 25 µMol): 97.55%
Viability % ([2]; MCF7, Conc. 25 µMol): 2.451%
IC50 ([2]; MCF7 cell line): 117 ± 4 nM
